The source of these data is patent publication US20130189741A1, “COMPOSITIONS AND METHODS FOR REPROGRAMMING MAMMALIAN CELLS” (Cellscript, Inc., priority 2009, published 2013).

The subject of the assay is BJ fibroblasts. Nature of the assay: Feeder-free reprogramming of BJ fibroblasts to iPSCs on MATRIGEL GFR matrix (Example 11). The format is cell-based, human. The conditions noted are these: Day 17. The protocol:
In EXAMPLE 11 embodiments, each in vitro-synthesized pseudouridine-containing ssRNA (i.e., synthesized using ΨTP in place of UTP in the IVT reaction) that encoded an iPSC induction factor [e.g., OCT4, SOX2, KLF4, LIN28, and either cMYC or cMYC(T58A)] or other pseudo-uridine-containing ssRNAs transfected together with the iPSC induction factors was treated with RNase III with 1 mM Mg(OAc)2 prior to capping and tailing of the ssRNA. In this EXAMPLE 11, the RNAse III treatment reactions also contained 0.8 U/microliter SCRIPTGUARD™ RNase inhibitor (CELLSCRIPT, INC.).
Prior to use for reprogramming, BJ fibroblasts (ATCC) were plated 5×10^4 cells per well on 6-well tissue culture plates coated with 83 ng per well of MATRIGEL™ GFR matrix (BD Biosciences, San Jose, Calif.) in Advanced MEM (Invitrogen, Carlsbad, Calif.) supplemented with 10% FBS (Fisher) and 2 mM GLUTAMAX™-I (Invitrogen, Carlsbad, Calif.), a minimum essential medium (MEM) useful for growth of fibroblast cells.
On the following day, the medium was changed to a “Feeder-free Reprogramming Medium” developed by the present applicants. This Feeder-free Reprogramming Medium was composed of Dulbecco's modified Eagle medium with nutrient mixture F-12 (DMEM/F12; (DMEM/F12; Invitrogen, Carlsbad, Calif.) supplemented with 20% KNOCKOUT™ serum replacement (Invitrogen), 2 mM GLUTAMAX™-I (Invitrogen), 0.1 mM non-essential amino acids solution (Invitrogen), 2 micromolar of the transforming growth factor 0 (TGFβ) inhibitor STEMOLECULE™ SB431542 (Stemgent®, Cambridge, Mass., USA), 0.5 micromolar of the MEK signaling pathway inhibitor STEMOLECULE™ PD0325901 (Stemgent), and/or 10 ng/ml the recombinant mouse cytokine, leukemia inhibitory factor (LIF or mLIF; Invitrogen, Carlsbad, Calif.), and 100 ng/ml basic human recombinant fibroblast growth factor (FGF; Invitrogen) with penicillin-streptomycin antibiotics. In some experiments, a lower or higher concentration of one or more of these inhibitors is used (e.g., 1-20 micromolar of the TGFβ inhibitor, 0.5-10 micromolar of the MEK signaling inhibitor, and/or 5-50 ng/ml the recombinant mouse cytokine, leukemia inhibitory factor). Since some of the molecules being inhibited may be introduced by the reagents or media used (e.g., TGFβ in the MATRIGEL™ or other extracellular matrix, the concentrations of the inhibitors used may vary based on the reagents and media used. In some experiments, the TGFβ inhibitor, MEK signaling inhibitor, and/or LIF was omitted from the feeder-free reprogramming medium. The Feeder-free Reprogramming Medium was changed daily one hour prior to each transfection with mRNA reprogramming factors. […] kit (Minis Bio LLC, Madison, Wis., USA) as described in the product literature: Briefly, a solution comprising a mixture of all of the mRNA reprogramming factors was diluted with 250 microliters of OPTI-MEM® I reduced serum medium (Invitrogen, Carlsbad, Calif.), and then 2.4 microliters of TRANSIT™ BOOST was added and mixed, followed by 2.4 microliters of the TRANSIT™ transfection reagent. In some embodiments, no inhibitor of expression of an innate immune response pathway was used. In some other embodiments, 132 ng of pseudouridine-containing mRNA encoding the B18R protein was added to the reprogramming factors comprising mRNA encoding OCT4, SOX2, KLF4, LIN28, and cMYC for reprogramming BJ fibroblasts. This transfection mix was applied dropwise to cells. Cells were then incubated at 37° C. in 5% CO2 until the next day's transfection. After 18 transfections, the medium was changed to a different “iPSC Maintenance Medium” that that was composed of DMEM/F12 supplemented with 20% KNOCKOUT™ serum replacement, 1 mM L-glutamine, 0.1 mM non-essential amino acids solution, and 100 ng/ml basic human recombinant fibroblast growth factor (FGF) (all from Invitrogen, Carlsbad, Calif.) with penicillin-streptomycin antibiotics for a few more days until iPSC colonies were big enough to pick manually. […]

Consider `O=C(NOC[C@H](O)CO)c1ccc(F)c(F)c1Nc1ccc(I)cc1F` [PD0325901], for which the “iPSC Colonies Observed” value (PD0325901 0 μM, 2 micromolar SB431542) is recorded as 1; the “iPSC Colonies Observed” value (PD0325901 0.5 μM, 2 micromolar SB431542) worked out at 77; the “iPSC Colonies Observed” value (PD0325901 1 μM, 2 micromolar SB431542) was found to be 27; the “iPSC Colonies Observed” value (PD0325901 2 μM, 2 micromolar SB431542) is 94; the “iPSC Colonies Observed” value (PD0325901 10 μM, 2 micromolar SB431542) stood at 11; the “iPSC Colonies Observed” value (PD0325901 15 μM, 2 micromolar SB431542) was determined as 0.

As for `NC(=O)c1ccc(-c2nc(-c3ccc4c(c3)OCO4)c(-c3ccccn3)[nH]2)cc1` [SB431542], the “iPSC Colonies Observed” value is listed as 0 (SB431542 0 μM, five-factor Ψ-mRNA mix daily for 17 days); 9 (SB431542 1 μM); 71 (SB431542 2 μM); 160 (SB431542 4 μM).
